Results: PubChem BioAssay (NCI)
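Cells were grown in 96-well plates and exposed to each compound for 48 hours at five concentrations; endpoints were interpolated linearly between bracketing concentrations, or set to the highest concentration if not reached. At the TGI there is no net growth.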

Assays:
Experiment in all cases: growth of human tumour cells (NCI), 48 h
IGROV1 ovarian = system: IGROV1 ovarian
ACHN renal = system: ACHN renal
SN12C renal = system: SN12C renal
SNB-75 CNS = system: SNB-75 CNS
MOLT-4 leukemia = system: MOLT-4 leukemia
OVCAR-5 ovarian = system: OVCAR-5 ovarian
COLO 205 colon = system: COLO 205 colon
786-0 renal = system: 786-0 renal
SK-MEL-2 melanoma = system: SK-MEL-2 melanoma
EKVX NSCLC = system: EKVX NSCLC
NCI-H522 lung = system: NCI-H522 lung
K-562 leukemia = system: K-562 leukemia
UACC-62 melanoma = system: UACC-62 melanoma
SNB-19 CNS = system: SNB-19 CNS
RXF-631 renal = system: RXF-631 renal
NCI-H226 lung = system: NCI-H226 lung
SF-268 CNS = system: SF-268 CNS
UO-31 renal = system: UO-31 renal
SW-620 colon = system: SW-620 colon
HOP-18 NSCLC = system: HOP-18 NSCLC
DMS 273 small cell lung = system: DMS 273 small cell lung
TK-10 renal = system: TK-10 renal
HCT-116 colon = system: HCT-116 colon
HCT-15 colon = system: HCT-15 colon
SK-MEL-28 melanoma = system: SK-MEL-28 melanoma
HT29 colon = system: HT29 colon
KM12 colon = system: KM12 colon
DLD-1 colon = system: DLD-1 colon
RXF 393 renal = system: RXF 393 renal
NCI-H23 lung = system: NCI-H23 lung
OVCAR-4 ovarian = system: OVCAR-4 ovarian
DMS 114 small cell lung = system: DMS 114 small cell lung
SR leukemia = system: SR leukemia
U251 CNS = system: U251 CNS
KM20L2 colon = system: KM20L2 colon
SF-295 CNS = system: SF-295 CNS
M14 melanoma = system: M14 melanoma
LOX IMVI melanoma = system: LOX IMVI melanoma
UACC-257 melanoma = system: UACC-257 melanoma
OVCAR-8 ovarian = system: OVCAR-8 ovarian
OVCAR-3 ovarian = system: OVCAR-3 ovarian
A549 NSCLC = system: A549 NSCLC
MALME-3M melanoma = system: MALME-3M melanoma
RPMI-8226 leukemia = system: RPMI-8226 leukemia
LXFL 529 NSCLC = system: LXFL 529 NSCLC
CAKI-1 renal = system: CAKI-1 renal
HCC-2998 colon = system: HCC-2998 colon
SK-MEL-5 melanoma = system: SK-MEL-5 melanoma
HOP-62 NSCLC = system: HOP-62 NSCLC
SF-539 CNS = system: SF-539 CNS
A498 renal = system: A498 renal
NCI-H460 lung = system: NCI-H460 lung

SMILES: O=C1c2ccccc2C(=O)c2nc3c(O)cccc3cc21
- TGI (IGROV1 ovarian): > 100 µM
- TGI (ACHN renal): > 100 µM
- TGI (SN12C renal): > 100 µM
- TGI (SNB-75 CNS): > 100 µM
- TGI (MOLT-4 leukemia): 23 µM
- TGI (OVCAR-5 ovarian): > 100 µM
- TGI (COLO 205 colon): > 100 µM
- TGI (786-0 renal): > 100 µM
- TGI (SK-MEL-2 melanoma): > 100 µM
- TGI (EKVX NSCLC): > 100 µM
- TGI (NCI-H522 lung): 72.2 µM
- TGI (K-562 leukemia): > 100 µM
- TGI (UACC-62 melanoma): > 100 µM
- TGI (SNB-19 CNS): > 100 µM
- TGI (RXF-631 renal): > 100 µM
- TGI (NCI-H226 lung): > 100 µM
- TGI (SF-268 CNS): > 100 µM
- TGI (UO-31 renal): > 100 µM
- TGI (SW-620 colon): > 100 µM
- TGI (HOP-18 NSCLC): > 100 µM
- TGI (DMS 273 small cell lung): > 100 µM
- TGI (TK-10 renal): > 100 µM
- TGI (HCT-116 colon): 19.4 µM
- TGI (HCT-15 colon): > 100 µM
- TGI (SK-MEL-28 melanoma): > 100 µM
- TGI (HT29 colon): 52.9 µM
- TGI (KM12 colon): > 100 µM
- TGI (DLD-1 colon): > 100 µM
- TGI (RXF 393 renal): > 100 µM
- TGI (NCI-H23 lung): > 100 µM
- TGI (OVCAR-4 ovarian): > 100 µM
- TGI (DMS 114 small cell lung): 20.7 µM
- TGI (SR leukemia): > 100 µM
- TGI (U251 CNS): > 100 µM
- TGI (KM20L2 colon): > 100 µM
- TGI (SF-295 CNS): 74.1 µM
- TGI (M14 melanoma): 27.9 µM
- TGI (LOX IMVI melanoma): > 100 µM
- TGI (UACC-257 melanoma): 32.4 µM
- TGI (OVCAR-8 ovarian): > 100 µM
- TGI (OVCAR-3 ovarian): 4.98 µM
- TGI (A549 NSCLC): > 100 µM
- TGI (MALME-3M melanoma): > 100 µM
- TGI (RPMI-8226 leukemia): > 100 µM
- TGI (LXFL 529 NSCLC): > 100 µM
- TGI (CAKI-1 renal): > 100 µM
- TGI (HCC-2998 colon): > 100 µM
- TGI (SK-MEL-5 melanoma): 18.5 µM
- TGI (HOP-62 NSCLC): > 100 µM
- TGI (SF-539 CNS): > 100 µM
- TGI (A498 renal): 64.2 µM
- TGI (NCI-H460 lung): > 100 µM
